From US20070014739A1, “Compositions and methods for controlling biofilms and bacterial infections” (priority 2005, published 2007)

Assays:
[1] = system: P. aeruginosa; experiment: Biofilm inhibition, comparison of scaffold modifications; assay type: cell-based; details: effect of modifying corosolic acid at C-19, or at C-3 and C-20
[2] = system: P. aeruginosa strain PAO1; experiment: Rotating disk reactor (RDR) biofilm test with and without tobramycin, culturable bacteria; assay type: cell-based, Pseudomonas aeruginosa; details: test compound 100 μg/ml 24 h, average of three days
Protocol: Biofilm formation of P. aeruginosa was evaluated using a standardized biofilm method with a rotating disk reactor (RDR). This method provides a model resembling the formation of biofilms in cystic fibrosis patients. The rotating disk reactor consists of a one-liter glass beaker fitted with a drain spout. The bottom of the vessel contains a magnetically driven rotor with six 1.27 cm diameter coupons constructed from polystyrene. The rotor consists of a star-head magnetic stir bar upon which a disk was affixed to hold the coupons. The vessel with the stir bar was placed on a stir plate and rotated to provide fluid shear. A nutrient solution (AB Trace Medium with 0.3 mM glucose, see Table 3 below for composition) was added through a stopper in the top of the reactor at a flow rate of 5 ml/min. The reactor volume was approximately 180 ml and varied slightly between reactors depending on the placement of the drain spout and the rotational speed of the rotor. At a volume of 180 ml, the residence time of the reactors was 36 minutes. The reactors were operated at room temperature (c.a. 26° C.).
For each test, two RDRs were operated in parallel with one receiving test compound and the other serving as an untreated control. The RDRs were sterilized by autoclave, then filled with sterile medium and inoculated with P. aeruginosa strain PAO1. The reactors were then incubated at room temperature in batch mode (no medium flow) for a period of 24 hours, after which the flow was initiated for a further 24 hour incubation. Test compounds were dissolved in 10 ml ethanol to achieve a concentration of 1.8 mg/ml. After the 48 hours of biofilm development described above, the 10 ml of ethanol containing the test compounds were added to the reactor to achieve a final concentration of approximately 50, 100, or 200 μg/ml. Control reactors received 10 ml of ethanol. The reactors were then incubated for an additional 24 hours in batch (no flow) mode. After this incubation period, the six coupons were removed from each reactor and placed in 12-well polystyrene tissue culture plates with wells containing either 2 ml of a 100 μg/ml tobramycin solution or 2 ml of phosphate-buffered saline (PBS). These plates were incubated at room temperature for two hours. The coupons were then rinsed by three transfers to plates containing 2 ml of fresh PBS. For each two RDR reactors run in parallel, four sets of three coupons were obtained: one set with no test compound treatment and no tobramycin treatment, one set with no test compound treatment and tobramycin treatment, one set treated with a test compound treatment and no tobramycin treatment, and one set treated with a test compound treatment and tobramycin. After rinsing, one coupon of each set of three was stained with a LIVE/DEAD® BacLight™ Bacterial Viability Kit (Molecular Probes, Eugene Oreg.) and imaged using epifluorescent microscopy. The remaining two coupons were placed in 10 ml of PBS and sonicated for five minutes to remove and disperse biofilm cells. The resulting bacterial suspensions were then serially diluted in PBS and plated on tryptic soy agar plates for enumeration of culturable bacteria. The plates were incubated for 24 hours at 37° C. before colony forming units (CFU) were determined.
The results are averages from experiments performed on three separate days for each test compound. The values reported are as loglo CFU.

[3] = system: E. coli laboratory strain JM109; experiment: Inhibition of biofilm formation, crystal violet, 96 well plates; assay type: cell-based; details: Escherichia coli, JM 109, compared to the controls, read-out: inhibited biofilm formation of the JM109 strain
Protocol: Biofilm inhibition experiments were conducted using an assay adapted from the reported protocol described in Pratt and Kolter, 1998, Molecular Microbiology, 30: 285-293; Li et al., 2001, J. Bacteriol., 183: 897-908. E. coli clinical strain UT189 was grown in LB in 96 well plates at room temperature for one or two days without shaking. E. coli laboratory strain JM109 was grown in LB plus 0.2% glucose in 96 well plates at room temperature for one day without shaking. To quantify the biofilm mass, the suspension culture was poured out and the biofilm was washed three times with water. The biofilm was stained with 0.1% crystal violet for 20 minutes. The plates were then washed three times with water. OD reading at 540 nm was measured to quantify the biofilm mass at the bottom of the wells. Then 95% ethanol was added to dissolve the dye at the bottom and on the wall and the OD reading at 540 nm was measured to quantify the total biofilm mass. To study the overall effect of the compounds (3.6 mg/mL in 100% ethanol as stock solution), it was added with the inoculation and a time course of biofilm mass was measured. Appropriate amounts of 100% ethanol were added to each sample to eliminate the effect of solvent. Each condition had 3-4 replicates on each plate and was performed over multiple days.

[4] = Bladder concentrations in rats (pharmacokinetic study); details: rat, in vivo; rats, 50 mg/kg oral single bolus in 50% Labrasol, at 24 hours; read-out: Concentrations in the bladder
Protocol: Pharmacokinetic studies of asiatic acid and madecassic acid in rats were performed separately. Asiatic acid and madecassic acid were evaluated at 50 mg/kg (oral). Two animals were assigned to the each group. Prior to dosing, a baseline blood sample was taken from each animal. At time zero for asiatic acid and madecassic acid, a single bolus dose in 50% Labrasol (Gattefosse) was given to each animal. Bladders were analyzed at 24 hours. Concentrations of both asiatic acid and madecassic acid in the bladder were approximately 30 μg/g at 24 hours.

[5] = system: P. aeruginosa; details: U.S. Pat. No. 4,606,911; cited from earlier work
[6] = system: S. aureus; details: U.S. Pat. No. 4,606,911; cited from earlier work
[7] = system: S. salivaris; details: U.S. Pat. No. 4,606,911; cited from earlier work
[8] = system: E. coli; details: U.S. Pat. No. 4,606,911; cited from earlier work
[9] = system: S. mutans; details: U.S. Pat. No. 4,606,911; cited from earlier work
[10] = system: E. coli clinical strain UT189 against bladder epithelial cells; experiment: Binding to and invasion of bladder epithelial cells by E. coli; assay type: cell-based; details: 40 μg/ml, 60 minutes; separate experiments (n=4 to 7)
Protocol: The effect of test compounds on bacterial invasion of E. coli clinical strain UT189 was studied as described in Elsinghorst, et al. 1994, Methods Enzymol, 236:405-420; and Martinez et al., 2000, EMBO J., 19:2803-2812. Epithelial bladder cells were grown in plates. Asiatic acid, corosolic acid, or ursolic acid were added at concentrations of 10 μg/ml, 20 μg/ml, or 40 μg/ml to bacteria and epithelial cells for approximately 5, 15, 30, or 60 minutes with approximately 10^7 CFU of E. coli. Binding was assessed at time zero and invasion was assessed at approximately 5, 15, 30, or 60 minutes from completing the mixture of compound, bacteria, and epithelial cells. As a control ethanol was added to cells to a final concentration of 0.1%. The effect of bacterial viability and bacterial adherence during the infection period was evaluated according to the methods described in Martinez et al., 2000, EMBO J., 19:2803-2812.

[11] = system: E. coli UT189[pCOMGFP]; experiment: Biofilm pods (IBCs) in bladders of infected mice, intravesical compound, confocal microscopy; assay type: in vivo, Escherichia coli; details: experiment 1: C3H/HeN mice, 40 μg/ml intravesical with 30 min pre-incubation, 10^8 CFU, five hours; vs controls
Protocol: The procedures in this example has been previously reported by Justice, S. et al. Differentiation and development pathways of uropathogenic Escherichia coli in urinary tract pathogenesis. PNAS, 2004, 101(5), p. 1333-1338. Briefly, E. coli UT189[pCOMGFP] was prepared after retrieval from frozen stocks by inoculating appropriately in LB medium statically for approximately 20 hours. Cells were harvested and suspended in 1 ml of PBS. Cells were diluted appropriately to achieve approximately a 10^8 CFU or 10^7 CFU input into C3H/HeN mice (2 mice per group).
Mice were deprived of water for approximately two hours. In experiment 1, all mice were anesthetized with 0.15 cc ketamine cocktail. In experiment 2, all mice were anesthetized with isofluorane. In experiment 1, urine was dispelled from the bladders and approximately 40 μg/ml of test compound or an appropriate amount of ethanol as control was introduced into the bladders via catheterization of the urethra using a tubing coated tuberculin syringe. 30 minutes was allowed to elapse. In experiment 2, bladders were not pre-incubated with test compounds. Bladders were then expelled and an inoculum of 10^8 CFU (Experiment 1) or 10^7 CFU (Experiment 2) of E. coli containing 40 μg/ml of test compound or equivalent amount of ethanol as controls were introduced into the bladders as indicated above.
In experiment 1 five hours elapsed and in experiment 2 six hours elapsed, and then mice were anesthetized and sacrificed appropriately. The bladders were removed, bisected, stretched, and fixed in 3% paraformaldehyde for 1 hour at room temperature. Bladders were then permeabilized in 0.01% Triton/PBS for 10 minutes and counter stained with TOPRO3 (Molecular Probes) for 10 minutes for visualization by confocal microscopy. Bladders were mounted on Prolong antifade (Molecular Probes).

Row | Structure (SMILES) | biofilm inhibition against P. aeruginosa relative to corosolic acid [1] | growth inhibition of P. aeruginosa [5] | growth inhibition of S. aureus [6] | growth inhibition of S. salivaris [7] | growth inhibition of E. coli [8] | growth inhibition of S. mutans [9] | further results
1 | C[C@@H]1[C@H]2C3=CCC4[C@@]5(C)CC[C@H](OC(=O)/C=C\c6ccc(O)cc6)C(C)(C)C5CC[C@@]4(C)[C@]3(C)CC[C@@]2(C(=O)O)CC[C@]1(C)O (stereo partly drawn) [3-[4-Hydroxycinnamoyl (cis-)], 20-hydroxy-ursolic acid] | increases biofilm inhibition | – | – | – | – | – | –
2 | C[C@H]1[C@H](C)CC[C@]2(C(=O)O)CC[C@]3(C)C(=CC[C@@H]4[C@@]5(C)C[C@@H](O)[C@H](O)[C@@](C)(CO)[C@@H]5[C@H](O)C[C@]43C)[C@H]12 [Madecassic acid] | – | – | – | – | – | – | CFU, Test Compound ([2]; no tobramycin): 7.5 loglo CFU; CFU, Tobramycin and Test Compound ([2]; then tobramycin 100 μg/ml 2 h): 5.5 loglo CFU; inhibition at 5 µg/mL ([3]; 5 ug/ml): ~60%; inhibition at 10 µg/mL ([3]; 10 ug/ml): ~75%; concentration at 24 h [4]: ~30000 ng/g
3 | CC1(C)CC[C@]2(C(=O)O)CC[C@]3(C)C(=CC[C@@H]4[C@@]5(C)CC[C@H](O)C(C)(C)[C@@H]5CC[C@]43C)[C@@H]2C1 [Oleanolic acid] | – | failed to inhibit | failed to inhibit | incomplete inhibition | failed to inhibit | incomplete inhibition | –
4 | C[C@@H]1CC[C@]2(C(=O)O)CC[C@]3(C)C(=CC[C@@H]4[C@@]5(C)C[C@@H](O)[C@H](O)C(C)(C)[C@@H]5CC[C@]43C)[C@@H]2[C@]1(C)O [Tormentic acid] | slightly reduces the biofilm inhibition | – | – | – | – | – | –
5 | C[C@@H]1CC[C@]2(C(=O)O)CC[C@]3(C)C(=CCC4[C@@]5(C)CC[C@H](O)C(C)(C)C5CC[C@]43C)C2[C@H]1C (stereo partly shown) [Ursolic acid] | – | failed to inhibit | failed to inhibit | completely inhibited | failed to inhibit | completely inhibited | reduced invasion of E. coli into bladder epithelial cells [10]: 76%; reduction in biofilm pods or IBCs in the bladders of mice [11]: 70%
